Reference: patent US7781452B2, “Imidazopyridine compound” (Eisai R&D Management Co., Ltd., priority 2004, dated 2010)
Values belong to the compound of their own block, whether it stands above or below them.

Columns and labels:
[1] = tested on: Gastric Acid Secretion in Rats; assay: Inhibitory effects on gastric acid secretion in pylorus-ligated, histamine-stimulated rats; format: in vivo, rat; conditions: male SD rats, 10 mg/kg into the duodenum, histamine 20 mg/kg subcutaneously, eight hours after administration
Protocol: Seven-week-old male SD rats fasted from the day before experiments were used. The rats were subjected to celiotomy along the median line under ether anesthesia, and the pylorus was ligated. Test compounds were dissolved or suspended in 0.5% methyl-cellulose solution (solvent) and prepared the concentration of 5 mg/ml. […] Then the abdomen was sutured. Eight hours after the administration of solvent or test compound, rat was sacrificed and stomach was isolated for the measurement of the volume of gastric juice. After the volume of gastric juice was determined, the acid concentration was measured using 0.25 ml of gastric juice by titration against 0.04 mol/l NaOH solution to pH 7.0. The acid output was calculated as (volume of gastric juice)×(acid concentration). The inhibition rate (%) was calculated according to the formula shown below. The number of animals of each experimental group is four. Inhibition rate (%)=100×(A−B)/A • A: acid output in solvent administered group • B: acid output in test compound administered group

CYP1A1 = assay: Cytochrome P450 (CYP) gene induction in human cryopreserved hepatocytes, CYP1A1 mRNA; format: in vitro ADME; conditions: for CYP1A1 mRNA induction potency, % of the positive control (100%): 48-hr exposure
Protocol: (§1) Human cryopreserved hepatocytes purchased from In Vitro Technology were quickly thawed at 37° C. After ice-cold William's E (WE) medium supplemented with 10% FCS, penicillin (100 U/mL), streptomycin (100 μg/mL) and glutamine (2 mM) (WE medium) was gradually added to hepatocytes, the cells were centrifuged at 500 rpm for 5 min at 4° C. The supernatant was removed and the cells were resuspended in WE medium to obtain 5×10^5 cells/mL. The cells were plated into collagen-coated 48-well plates (1×10^5 cells/cm^2) and cultured at 37° C. and 5% CO2 for about 24 hr.
(§2) Medium was replaced with Hepato-STIM (trademark, BD Biosciences) supplemented with EGF, penicillin (100 U/mL), streptomycin (100 μg/mL) and glutamine (2 mM) (HS medium) and the cells were cultured for about 24 hr. At about 48 hr of culture after seeding, the cells were treated with the test compounds and β-naphtoflavone (β-NF, positive control for human CYP1A1 and CYP1A2, SIGMA) prepared by HS medium for about 48 hr. Medium was changed daily. The final concentration of β-NF was set to 10 μM. All compounds were dissolved in dimethylsulfoxide (DMSO, Wako), resulting in a final vehicle concentration of 0.1% (v/v). To the control cells, HS medium containing 0.1% DMSO was added.
(§3) After 48-hr exposure, cells were washed once using PBS, and total RNA was purified using Qiagen RNeasy Mini Kit (Qiagen) according to the manufacturer's instruction. Purified total RNA was then used as template for first strand cDNA synthesis. For reverse transcription (RT) reaction, Oligo dT was employed. The RT reaction was carried using TaqMan Reverse Transcription Reagents (Applied Biosystems) at 25° C. for 10 min followed by 60-min reaction at 48° C., and then the enzyme was inactivated at 95° C. for 5 min in Gene Amp PCR System 9700. The resulting cDNA was subjected to polymerase chain reaction (PCR) in ABI7700 Sequence Detection System (Applied Biosystems). For the mRNA analyses of CYP1A1 and GAPDH, SYBR Green PCR Core Reagents kit (Applied Biosystems) was used, and CYP1A2 mRNA was quantified using TaqMan PCR Core Reagents kit (Applied Biosystems).
(§4) The amount of mRNA of CYP1A1 or CYP1A2 was divided by that of GAPDH. Then, the ratio (fold) of the values obtained in test compounds (X) and positive control (P) against that in control was calculated. The induction potency of test compound (%) was obtained by following equation: Induction potency of test compound (%)=100×(X−1)/(P−1) <Results>

CYP1A2 = assay: Cytochrome P450 (CYP) gene induction in human cryopreserved hepatocytes, CYP1A2 mRNA; format: in vitro ADME; conditions: for CYP1A2 mRNA induction potency, % of the positive control (100%): 48-hr exposure
Protocol: as §1, §2, §3, §4

[2] = 10 μM, normalised to GAPDH, vs 0.1% DMSO control

CYP1A1 mRNA induction potency, % of the positive control (100%) (CYP1A1; 0.3 μM): 2.03%
CYP1A1 mRNA induction potency, % of the positive control (100%) (CYP1A1; 1 μM): 8.02%
CYP1A1 mRNA induction potency, % of the positive control (100%) (CYP1A1; 3 μM): 11.27%
CYP1A1 mRNA induction potency, % of the positive control (100%) (CYP1A1; 10 μM): 18.46%
CYP1A2 mRNA induction potency, % of the positive control (100%) (CYP1A2; 0.3 μM): 8.36%
CYP1A2 mRNA induction potency, % of the positive control (100%) (CYP1A2; 1 μM): 12.16%
CYP1A2 mRNA induction potency, % of the positive control (100%) (CYP1A2; 3 μM): 11.78%
CYP1A2 mRNA induction potency, % of the positive control (100%) (CYP1A2; 10 μM): 29.18%
Structure (SMILES): COc1ccnc(C[S+]([O-])c2nc3cc(C)c(OC)nc3[n-]2)c1C.[Na+] (stereo not drawn) [Example 1, 5-Methoxy-2-(((4-methoxy-3-methyl-2-pyridinyl)methyl)sulfinyl)-6-methyl-3H-imidazo[4,5-b]pyridineSodium salt]
Inhibition rate(%) of acid output [1]: 79%

Structure (SMILES): COc1ccnc(C[S+]([O-])c2nc3cc(C)c(OCC(F)(F)F)nc3[n-]2)c1C.[Na+] (stereo not drawn) [Example 2, 2-(((4-Methoxy-3-methyl-2-pyridinyl)methyl]sulfinyl)-6-methyl-5-(2,2,2-trifluoroethoxy)-3H-imidazo[4,5-b]pyridine Sodium salt]
Inhibition rate(%) of acid output [1]: 86%

Structure (SMILES): COc1ccnc(C[S+]([O-])c2nc3cc(C)c(OCC(F)F)nc3[n-]2)c1C.[Na+] (stereo not drawn) [Example 3, 5-(2,2-Difluoroethoxy)-2-(((4-methoxy-3-methyl-2-pyridinyl)methyl)sulfinyl)-6-methyl-3H-imidazo[4,5-b]pyridine Sodium salt]
Inhibition rate(%) of acid output [1]: 85%

CYP1A1 mRNA induction potency, % of the positive control (100%) (CYP1A1; 10 μM): 100%
CYP1A1 mRNA fold induction as compared with control (figures in parentheses) (CYP1A1; [2]): 79.97 fold
CYP1A2 mRNA induction potency, % of the positive control (100%) (CYP1A2; 10 μM): 100%
CYP1A2 mRNA fold induction as compared with control (figures in parentheses) (CYP1A2; [2]): 14.16 fold
Structure (SMILES): O=c1cc(-c2ccccc2)oc2ccc3ccccc3c12 [βNF, β-naphtoflavone, reference compound]
